The values that follow are results of earlier work, collected in patent US20230184643A1, “METHOD FOR MEASURING OR IDENTIFYING A COMPONENT OF INTEREST IN SPECIMENS” (SHIMADZU CORPORATION, priority 2020, published 2023).

Marks after values point to notes of the source that are not given here.

For the data set the following is noted: Table 4.1; Drug bank accessed November 2020.

Consider `CN[C@@H]1[C@@H](O)[C@@H](O[C@@H]2[C@@H](O)[C@H](O[C@H]3OC(CN)=CC[C@H]3N)[C@@H](N)C[C@H]2N)OC[C@]1(C)O` [Sisomicin], for which the LogP is −4.3^a.
